The record followed here is ChEMBL document CHEMBL2321725, “Optimization of non-ATP competitive CDK/cyclin groove inhibitors through REPLACE-mediated fragment assembly” (J Med Chem, 2013).

Experiment [1] concerns the target Cyclin-dependent kinase 2/cyclin A (Homo sapiens, UniProt P24941). Briefly: Inhibition of human recombinant CDK2/Cyclin A2 using fluoresceinyl-Ahx-Pro-Val-Lys-Arg-Arg-Leu-Phe-Gly tracer peptide as substrate after 45 mins by fluorescent polarization binding assay. The experiment is classed as protein-complex assay.
The target of experiment [2] is Cyclin-dependent kinase 4/cyclin D1 (Homo sapiens, UniProt P11802). The experiment is described as follows: Inhibition of human recombinant CDK4/Cyclin D1 using fluoresceinyl-Ahx-Pro-Val-Lys-Arg-Arg-Leu-(3ClPhe)-Gly tracer peptide as substrate after 45 mins by fluorescent polarization binding assay.

Peptide text beside a SMILES is read from it. * marks the point of attachment. X14 = Cc1nc(C(=O)*)nn1-c1cc(Cl)cc(Cl)c1; X17 = Cc1cc(C(=O)*)nn1-c1cc(Cl)cc(Cl)c1; X18 = O=C(c1ccc(-c2cc(Cl)cc(Cl)c2)o1)*; X9 = O=C(c1ccn(-c2cc(Cl)cc(Cl)c2)c1)*; X13 = O=C(c1c[nH]c(-c2cccc(F)c2)n1)*; X11 = Cc1cc(C(=O)*)nn1-c1ccc(Cl)cc1; X12 = Cc1nc(C(=O)*)nn1-c1ccc(Cl)cc1; X16 = Cc1nc(C(=O)*)nn1-c1cccc(Cl)c1; X15 = O=C(c1ccn(-c2ccc(Cl)cc2)c1)*; X2 = Cc1cc(C(=O)*)nn1-c1cccc(Cl)c1; X3 = COc1ccc(-n2nc(C(=O)*)cc2C)cc1; X6 = COc1cccc(-n2nc(C(=O)*)cc2C)c1; X1 = Cc1cccc(-n2nc(C(=O)*)nc2C)c1; X4 = O=C(c1ccc(-c2cccc(Cl)c2)o1)*; X5 = O=C(c1csc(-c2ccc(Cl)cc2)n1)*; X7 = Cc1cc(C(=O)*)nn1-c1cccc(F)c1; X10 = Cc1cc(C(=O)*)nn1-c1ccccc1; X8 = Cn1cc(C(=O)*)nc1-c1ccccc1

Sequence of Cyclin-dependent kinase 4/cyclin D1 (P11802 whole entry): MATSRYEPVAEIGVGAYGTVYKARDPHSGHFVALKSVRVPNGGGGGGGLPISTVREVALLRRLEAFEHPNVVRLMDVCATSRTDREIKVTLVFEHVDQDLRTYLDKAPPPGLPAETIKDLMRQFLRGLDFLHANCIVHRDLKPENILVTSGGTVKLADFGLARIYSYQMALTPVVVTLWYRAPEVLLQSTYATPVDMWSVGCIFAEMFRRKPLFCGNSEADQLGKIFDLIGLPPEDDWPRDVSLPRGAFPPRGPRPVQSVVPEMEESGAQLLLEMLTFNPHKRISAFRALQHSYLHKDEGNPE
Sequence of Cyclin-dependent kinase 4/cyclin D1 (P24385 whole entry, further chain): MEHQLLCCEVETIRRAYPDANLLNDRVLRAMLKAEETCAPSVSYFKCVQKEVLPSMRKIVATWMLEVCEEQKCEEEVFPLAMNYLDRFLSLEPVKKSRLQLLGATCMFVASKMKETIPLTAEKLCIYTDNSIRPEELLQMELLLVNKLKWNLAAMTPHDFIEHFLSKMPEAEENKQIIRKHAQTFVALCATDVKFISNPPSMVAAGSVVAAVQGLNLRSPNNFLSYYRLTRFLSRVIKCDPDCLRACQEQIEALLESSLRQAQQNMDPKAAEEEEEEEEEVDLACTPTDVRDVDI

For the compound `CC[C@H](C)[C@H](NC(=O)[C@H](CC(C)C)NC(=O)[C@H](CCCNC(=N)N)NC(=O)c1nc(C)n(-c2cccc(C)c2)n1)C(=O)N[C@@H](Cc1ccccc1)C(N)=O` (X1-RLIF-NH2), the results for the half-maximal inhibitory concentration (IC50) in experiment [1] and in experiment [2] were 13.8 µM and 51.1 µM, respectively.
Consider `Cc1nc(C(=O)N[C@@H](CCCNC(=N)N)C(=O)N[C@@H](CC(C)C)C(=O)NCc2cccc(Oc3ccccc3)c2)nn1-c1ccc(Cl)cc1`, for which the IC50 (commonly the concentration that gives 50% inhibition) in experiment [1] was 106 µM; in experiment [2], greater than 200 µM.
As to `CC[C@H](C)[C@H](NC(=O)[C@H](CC(C)C)NC(=O)[C@H](CCCNC(=N)N)NC(=O)c1cc(C)n(-c2ccccc2)n1)C(=O)N[C@@H](Cc1ccccc1)C(N)=O` (X10-RLIF-NH2), the IC50 in experiment [1] was determined as 40.3 µM; in experiment [2], 54.2 µM.
For `CC[C@H](C)[C@H](NC(=O)[C@H](CC(C)C)NC(=O)[C@H](CCCNC(=N)N)NC(=O)c1ccn(-c2cc(Cl)cc(Cl)c2)c1)C(=O)N[C@@H](Cc1ccccc1)C(N)=O` (X9-RLIF-NH2), the IC50 in experiment [1] and in experiment [2] was greater than 180 µM in each case.
For the compound `CC[C@H](C)[C@H](NC(=O)[C@H](CC(C)C)NC(=O)[C@H](CCCNC(=N)N)NC(=O)c1cc(C)n(-c2ccc(OC)cc2)n1)C(=O)N[C@@H](Cc1ccccc1)C(N)=O` (X3-RLIF-NH2), the concentration for half-maximal inhibition (IC50) in experiment [1] and in experiment [2] was greater than 180 µM in each case.
`CC[C@H](C)[C@H](NC(=O)[C@H](CC(C)C)NC(=O)[C@H](CCCNC(=N)N)NC(=O)c1nc(C)n(-c2cc(Cl)cc(Cl)c2)n1)C(=O)N[C@@H](Cc1ccccc1)C(N)=O` (X14-RLIF-NH2): the values for the IC50 in experiment [1] and in experiment [2] were 4 µM and 27.3 µM, respectively.
Take `Cc1nc(C(=O)N[C@@H](CCCNC(=N)N)C(=O)N[C@@H](CC(C)C)C(=O)NCc2cc(Oc3ccc(F)cc3)ccn2)nn1-c1ccc(Cl)cc1`: the results for the half-maximal inhibitory concentration (IC50) in experiment [1] and in experiment [2] were 18.1 µM and greater than 200 µM, respectively.
With `CC[C@H](C)[C@H](NC(=O)[C@H](CC(C)C)NC(=O)[C@H](CCCNC(=N)N)NC(=O)c1ccn(-c2ccc(Cl)cc2)c1)C(=O)N[C@@H](Cc1ccccc1)C(N)=O` (X15-RLIF-NH2), the IC50 in experiment [1] and in experiment [2] was greater than 180 µM throughout.
Consider `CC[C@H](C)[C@H](NC(=O)[C@H](CC(C)C)NC(=O)[C@H](CCCNC(=N)N)NC(=O)c1cc(C)n(-c2cc(Cl)cc(Cl)c2)n1)C(=O)N[C@@H](Cc1ccccc1)C(N)=O` (X17-RLIF-NH2), for which the IC50 in experiment [1] is 21.8 µM; in experiment [2], greater than 100 µM.
In the case of `CC[C@H](C)[C@H](NC(=O)[C@H](CC(C)C)NC(=O)[C@H](CCCNC(=N)N)NC(=O)c1ccc(-c2cc(Cl)cc(Cl)c2)o1)C(=O)N[C@@H](Cc1ccccc1)C(N)=O` (X18-RLIF-NH2), the 50% inhibitory concentration (IC50) in experiment [1] and in experiment [2] was greater than 180 µM throughout.
For `CC[C@H](C)[C@H](NC(=O)[C@H](CC(C)C)NC(=O)[C@H](CCCNC(=N)N)NC(=O)c1nc(C)n(-c2ccc(Cl)cc2)n1)C(=O)N[C@@H](Cc1ccccc1)C(N)=O` (X12-RLIF-NH2), the half-maximal inhibitory concentration (IC50) is 11.5 µM in experiment [1] and 12 µM in experiment [2].
As to `Cc1ccccc1Oc1ccnc(CNC(=O)[C@H](CC(C)C)NC(=O)[C@H](CCCNC(=N)N)NC(=O)c2nc(C)n(-c3ccc(Cl)cc3)n2)c1`, the IC50 is 60 µM in experiment [1] and greater than 500 µM in experiment [2].
Consider `Cc1nc(C(=O)N[C@@H](CCCNC(=N)N)C(=O)N[C@@H](CC(C)C)C(=O)NCc2cc(Oc3cccc(F)c3)ccn2)nn1-c1ccc(Cl)cc1`, for which the IC50 in experiment [1] is 53.2 µM; in experiment [2], greater than 200 µM.
In the case of `Cc1nc(C(=O)N[C@@H](CCCNC(=N)N)C(=O)N[C@@H](CC(C)C)C(=O)NCc2cc(Oc3cccc(Cl)c3)ccn2)nn1-c1cc(Cl)cc(Cl)c1`, the IC50 in experiment [1] turned out to be 61 µM; in experiment [2] it was 120 µM.
Consider `CC[C@H](C)[C@H](NC(=O)[C@H](CC(C)C)NC(=O)[C@H](CCCNC(=N)N)NC(=O)c1cc(C)n(-c2cccc(Cl)c2)n1)C(=O)N[C@@H](Cc1ccccc1)C(N)=O` (X2-RLIF-NH2), for which the 50% inhibitory concentration (IC50) in experiment [1] turned out to be 11.9 µM; in experiment [2] it was 70.3 µM.
Consider `CC[C@H](C)[C@H](NC(=O)[C@H](CC(C)C)NC(=O)[C@H](CCCNC(=N)N)NC(=O)c1cc(C)n(-c2ccc(Cl)cc2)n1)C(=O)N[C@@H](Cc1ccccc1)C(N)=O` (X11-RLIF-NH2), for which the IC50 stood at 33.7 µM in experiment [1] and 54.7 µM in experiment [2].
In the case of `CC[C@H](C)[C@H](NC(=O)[C@H](CC(C)C)NC(=O)[C@H](CCCNC(=N)N)NC(=O)c1c[nH]c(-c2cccc(F)c2)n1)C(=O)N[C@@H](Cc1ccccc1)C(N)=O` (X13-RLIF-NH2), the 50% inhibitory concentration (IC50) was found to be 34.3 µM in experiment [1] and 68.5 µM in experiment [2].
In the case of `Cc1nc(C(=O)N[C@@H](CCCNC(=N)N)C(=O)N[C@@H](CC(C)C)C(=O)NCc2cccc(Oc3cc(Cl)cc(Cl)c3)c2)nn1-c1cc(Cl)cc(Cl)c1`, the figures for the IC50 in experiment [1] and in experiment [2] were greater than 180 µM and 120 µM, respectively.
As to `CC[C@H](C)[C@H](NC(=O)[C@H](CC(C)C)NC(=O)[C@H](CCCNC(=N)N)NC(=O)c1cc(C)n(-c2cccc(F)c2)n1)C(=O)N[C@@H](Cc1ccccc1)C(N)=O` (X7-RLIF-NH2), the results for the IC50 in experiment [1] and in experiment [2] were 29.6 µM and 65.9 µM, respectively.
The matching figures for `Cc1nc(C(=O)N[C@@H](CCCNC(=N)N)C(=O)N[C@@H](CC(C)C)C(=O)NCc2cc(Oc3ccc(F)c(F)c3)ccn2)nn1-c1cc(Cl)cc(Cl)c1`: greater than 180 µM and greater than 180 µM.
Turning to `Cc1nc(C(=O)N[C@@H](CCCNC(=N)N)C(=O)N[C@@H](CC(C)C)C(=O)NCc2cc(Oc3ccc(Cl)cc3)ccn2)nn1-c1ccc(Cl)cc1`, the 50% inhibitory concentration (IC50) in experiment [1] was 54.4 µM; in experiment [2], greater than 500 µM.
For the compound `CC[C@H](C)[C@H](NC(=O)[C@H](CC(C)C)NC(=O)[C@H](CCCNC(=N)N)NC(=O)c1cc(C)n(-c2cccc(OC)c2)n1)C(=O)N[C@@H](Cc1ccccc1)C(N)=O` (X6-RLIF-NH2), the IC50 in experiment [1] is 64.1 µM; in experiment [2] it was greater than 100 µM.
With `CC[C@H](C)[C@H](NC(=O)[C@H](CC(C)C)NC(=O)[C@H](CCCNC(=N)N)NC(=O)c1csc(-c2ccc(Cl)cc2)n1)C(=O)N[C@@H](Cc1ccccc1)C(N)=O` (X5-RLIF-NH2), the IC50 in experiment [1] and in experiment [2] was greater than 180 µM in each case.
On to `CC[C@H](C)[C@H](NC(=O)[C@H](CC(C)C)NC(=O)[C@H](CCCNC(=N)N)NC(=O)c1nc(C)n(-c2cccc(Cl)c2)n1)C(=O)N[C@@H](Cc1ccccc1)C(N)=O` (X16-RLIF-NH2), for which the IC50 stood at 5.7 µM in experiment [1] and 26.5 µM in experiment [2].
Regarding `CC[C@H](C)[C@H](NC(=O)[C@H](CC(C)C)NC(=O)[C@H](CCCNC(=N)N)NC(=O)c1ccc(-c2cccc(Cl)c2)o1)C(=O)N[C@@H](Cc1ccccc1)C(N)=O` (X4-RLIF-NH2), the half-maximal inhibitory concentration (IC50) in experiment [1] and in experiment [2] was greater than 180 µM each time.
In the case of `CC[C@H](C)[C@H](NC(=O)[C@H](CC(C)C)NC(=O)[C@H](CCCNC(=N)N)NC(=O)c1cn(C)c(-c2ccccc2)n1)C(=O)N[C@@H](Cc1ccccc1)C(N)=O` (X8-RLIF-NH2), the half-maximal inhibitory concentration (IC50) in experiment [1] and in experiment [2] was greater than 180 µM in each case.
